Data: patent US9314510B2, “Human laminin α2 chain LG3 domain and active peptides promoting cell adhesion, spreading, migration, and neurite outgrowth” (SNU R&DB Foundation, priority 2011, dated 2016)
Ends that are not written are not given here.

Key:
[1] = test system: PC12 cells; experiment: Inhibition of cell spreading on rLG3 by peptide pretreatment; type: cell-based, rat; conditions: PC12 cells pretreated with 500 μg/mL peptide, rLG3 25 μg/mL, 3 h
Description: PC12 cells were pretreated with 500 μg/mL of Ln2-LG3-P1, Ln2-LG3-P2, Ln2-LG3-P3, Ln2-LG3-P4, Ln2-LG3-P5 and SP (scramble peptide) (SEQ ID NO:20) for 10 min at room temperature and then cultured on plates coated with rLG3 (25 μg/mL) in serum-free medium. To observe cell adhesion, PC12 cells were incubated on the coated plates for 1 h and to observe cell spreading, PC12 cells were incubated on the coated plates for 3 h. To observe cell migration, cells were seed into the upper chamber of transwell filters coated with rLG3 (25 μg/mL) and cultured for 24 h. Cell migration was quantified by counting the number of cells that had migrated through the filter.

[2] = test system: PC12 cells; experiment: Summary of cell adhesion, spreading, migration and neurite outgrowth promotive effects; type: cell-based, rat; conditions: summary statement of the description
Description: To measure cell adhesion, spreading, migration, and neurite outgrowth promotive activities of PC12 cells using the prepared synthetic peptides that are N- and C-terminal truncated or C-terminal added peptides of the Ln2-LG3-P2 peptide, peptides described in Table 1 were coated onto plates at 62.5 μg/mL and PC12 cells were seeded thereon.

[3] = test system: NIH/3T3 cells; experiment: Cell adhesion to Ln2-LG3-P2-coated plates, NIH/3T3; type: cell-based, mouse; conditions: 62.5 μg/mL, 1 h
From the text: The mouse embryo fibroblast cell line NIH/3T3 was purchased from the American Type Culture Collection (Manassas, Va.) and cultured in Dulbecco's modified Eagle's medium (DMEM) containing 10% FBS.

[4] = test system: Schwann cells; experiment: Schwann cell spreading on coated plates; type: cell-based, human; conditions: plates coated with 62.5 μg/mL peptide, 3 h
Description: Schwann cells, nerve cells used in the present invention, were obtained from human skin-derived precursors by differentiating the cells toward the Schwann cell lineage for two weeks and identified by immunocytochemical markers specific to Schwann cells, such as S100D and glial fibrillary acidic protein (GFAP) (Biernaskie, J. A. et al., Nat. Protoc., 2006).
Schwann cells were cultured on plates which were coated in the same way for 3 h in serum-free medium and the cell spreading of Schwann cells was observed.

[5] = test system: PC12 cells; experiment: Neurite outgrowth assay; type: cell-based, rat; conditions: PC12 cells on coated plates, serum-free, 24 h + 72 h
Description: Laminin, rLG domain protein, and the peptide were coated onto plates and cells were seeded on the plates in serum-free medium and incubated for 24 h. After changing with serum-free medium again, cells were further cultured for 72 h and neurite outgrowth was examined.

Molecule | inhibition of cell spreading to rLG3 protein [1] | cell adhesion, spreading, migration, and neurite outgrowth promotive effects [2] | cell adhesion activity [3] | Schwann cell spreading [4] | reduction of Schwann cell spreading compared to laminin ([4]; laminin 5 μg/mL) | neurite outgrowth [5]
RNIPPFEGCIWN (RNIPPFEGCIWN-NH2; listed as Homo sapiens) [Ln2-LG3-P2, 12-mer peptide, position 2675 to 2686 in human laminin α2 chain] | inhibited cell spreading and migration | occurred the most actively | strong cell adhesion activity | substantially higher spreading than BSA or scrambled peptide | approximately 50% | –
rLG3: recombinant His6-tagged human laminin α2 chain LG3 domain, amino acids 2537 to 2745 (protein, listed as Homo sapiens, His6 tag) VELSPVPIDVGTEINLSFSTKNESGIILLGSGGTPAPPRRKRRQTGQAYYVILLNRGRLEVHLSTGARTMRKIVIRPEPNLFHDGREHSVHVERTRGIFTVQVDENRRYMQNLTVEQPIEVKKLFVGGAPPEFQPSPLRNIPPFEGCIWNLVINSVPMDFARPVSFKNADIGRCAHQKLREDEDGAAPAEIVIQPEPVPTPAFPTPTPV | – | – | – | – | – | supports cell adhesion, spreading, migration, and neurite outgrowth
